What was measured:
CEACAM5 = target: T1, CEACAM5 (Homo sapiens, UniProt P06731); experiment: antibody binding to target antigen after conjugation
T1 sequence (P06731 35-676): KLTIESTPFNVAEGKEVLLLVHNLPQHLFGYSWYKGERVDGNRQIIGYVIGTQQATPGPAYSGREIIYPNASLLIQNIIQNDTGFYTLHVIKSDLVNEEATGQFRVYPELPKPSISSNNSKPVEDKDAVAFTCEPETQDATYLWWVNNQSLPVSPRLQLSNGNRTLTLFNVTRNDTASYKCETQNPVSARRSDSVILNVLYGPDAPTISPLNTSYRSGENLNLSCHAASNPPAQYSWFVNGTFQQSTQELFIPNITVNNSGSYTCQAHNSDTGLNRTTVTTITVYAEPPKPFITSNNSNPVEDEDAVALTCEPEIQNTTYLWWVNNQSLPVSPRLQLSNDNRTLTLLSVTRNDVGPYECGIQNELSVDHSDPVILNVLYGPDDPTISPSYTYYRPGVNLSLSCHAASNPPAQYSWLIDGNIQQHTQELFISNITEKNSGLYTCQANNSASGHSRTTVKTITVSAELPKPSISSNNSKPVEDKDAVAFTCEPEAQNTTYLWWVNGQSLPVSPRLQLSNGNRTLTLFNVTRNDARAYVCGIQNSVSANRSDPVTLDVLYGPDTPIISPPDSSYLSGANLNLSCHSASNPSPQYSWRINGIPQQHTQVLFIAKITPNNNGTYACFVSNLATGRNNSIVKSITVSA
Procedure: Retention of antibody binding was confirmed by cell binding assays comparing binding of the conjugate to unconjugated antibody (Chari, 2008, Acc Chem Res 41:98-107). The potency of the conjugate was tested in a 4-day MTS assay using appropriate target cells.

[1] = target: DDD of the RII form of PKA; settings: cited from earlier work
[2] = system: Capan-1 human pancreatic adenocarcinoma xenografts; experiment: therapy of Capan-1 xenografts in nude mice; type: in vivo; settings: for therapeutic response (FIG. 2): 2.25 mg/kg protein dose twice weekly×2 weeks, compared with hMN-14 conjugate
Procedure: FIG. 2. Therapy in nude mice bearing s.c. human tumor xenografts using 2.25 mg/kg protein dose (0.064 mg/kg of drug dose) of MAb-P2PDox conjugates twice weekly×2 weeks in nude mice with Capan-1 human pancreatic adenocarcinoma xenografts (n=5).
Tumors were measured and mice weighed twice a week.
At 63 days after Capan-1 tumor injection (with therapy starting at 1 days post-innoculation), 0 of 10 mice were alive in the saline control, 10 of 10 mice were alive in mice treated twice weekly×2 weeks with 45 μg of hPAM4-P2PDox, 2 of 10 mice were alive in mice treated twice weekly×2 weeks with 45 μg of hA20-P2PDox, 0 of 10 mice were alive in mice treated twice weekly×4 weeks with 250 μg of hPAM4-SN-38, and 0 of 10 mice were alive in mice treated twice weekly×4 weeks with 250 μg of h20-SN-38.

[3] = system: NCI-N87 human gastric carcinoma xenografts; experiment: therapy of NCI-N87 xenografts in nude mice; type: in vivo; settings: for therapeutic response (FIG. 3): 2.25 mg/kg protein dose twice weekly×2 weeks, compared with hMN-14 conjugate; for effect on tumors, one treatment cycle: 4×45 μg
Procedure: FIG. 3A. Therapy in nude mice bearing s.c. human tumor xenografts using 2.25 mg/kg protein dose (0.064 mg/kg of drug dose) of MAb-P2PDox conjugates twice weekly×2 weeks in nude mice (n=7) with NCI-N87 human gastric carcinoma xenografts.
Tumor size was determined by caliper measurements of length (L) and width (W) with tumor volume calculated as (L×W^2)/2. Tumors were measured and mice weighed twice a week. Mice were euthanized if their tumors reached >1 cm^3 in size, lost greater than 15% of their starting body weight, or otherwise became moribund. Statistical analysis for the tumor growth data was based on area under the curve (AUC) and survival time. Profiles of individual tumor growth were obtained through linear curve modeling. An f-test was employed to determine equality of variance between groups prior to statistical analysis of growth curves. A two-tailed t-test was used to assess statistical significance between all the various treatment groups and non-specific controls. For the saline control analysis a one-tailed t-test was used to assess significance. Survival studies were analyzed using Kaplan-Meier plots (log-rank analysis), using the Prism GraphPad Software (v4.03) software package (Advanced Graphics Software, Inc.; Encinitas, Calif.). All doses in preclinical experiments are expressed in antibody amounts. In terms of drug, 100 μg of antibody (5 mg/kg) in a 20-g mouse, for example, carries 1.4 μg-2.8 μg ([…]) of P2PDox equivalent dose when using an ADC with 3-6 drugs/IgG.
Using this dosing regimen, we examined the therapeutic effect of hRS7-P2PDox in 2 human tumor xenograft models, Capan-1 (pancreatic cancer) and NCI-N87 (gastric cancer). Therapy began 7 days after tumor transplantation in nude mice.
Anti-TROP-2 antibody conjugate, hRS7-P2PDox, was evaluated in nude mice bearing NCI-N87 human gastric cancer xenografts by administering a single bolus protein dose of 9 mg/kg, 6.75 mg/kg, 4.5 mg/kg, 2.25 mg/kg, or 1 mg/kg. The therapy was started when the mean tumor volume (mTV) was 0.256 cm^3.
Further in vivo efficacy studies were performed in nude mice implanted with NCI-N87 human gastric cancer xenografts (FIG. 13A-F).
The effect of varying dosage schedule on anti-tumor efficacy was examined (FIG. 14, FIG. 19A-G). The experiment began 9 days after tumor implantation when mean tumor volume for all groups was 0.383 cm^3, and ended on day 93 (84 days after initiation of therapy).

[4] = system: Chronic Lymphocytic Leukemia (CLL); experiment: treatment of CLL patients; type: in vivo, human
Procedure: Patients with previously untreated or relapsed CLL receive 4 doses of 70, 100 or 150 mg P2PDox-veltuzumab injected i.v. every two weeks. Only occasional mild to moderate transient injection reactions are seen and no other safety issues are observed, except for neutropenia, which can be controlled by interrupting therapy until improved or administering a G-CSF leukocyte stimulator, as per conventional practice. […] Objective responses are observed at all dose levels of P2PDox-veltuzumab, but with particularly high responses of 30% (mostly partial responses) at the highest dose. All serum samples evaluated for human anti-veltuzumab antibody (HAHA) are negative.

[5] = system: HIV-1IIIB/MuLV infected splenocytes; experiment: HIV-1/MuLV infected cell challenge in mice; type: in vivo; settings: doses of 100-200 μg
Procedure: P4/D10-P2PDox is tested in vitro for its efficacy in eliminating HIV-1-infected cells among non-infected cells and in a mouse model by removing HIV-1/MuLV (murine leukemia virus) infected syngeneic cells from the intraperitoneal cavity.
A human T-cell line, CEM-1B, with a genetically integrated MuLV genome is infected with HIV-1IIIB, which leads to the production of pseudoviruses with the HIV-1 genome and the MuLV envelope (Adang et al., PNAS USA 1999, 96:12749-753; Hinkula et al., Cells Tissues Organs 2004, 177:169-184). These virus supernatants are used to infect splenocytes from C57B1/6×DBA F1 K^b/d mice transgenic for HLA-A201. Isogenic mice are challenged with HIV-1IIIB/MuLV infected splenocytes i.p. and are immediately given conjugated antibodies or free antibodies i.p. Ten days after challenge, mice are sacrificed and peritoneal cells collected. Peritoneal cells are pelleted and added to 1×10^6 HIV susceptible Jurkat T-cells or human PBMC grown in 24-well plates. From these secondary cultures, supernatant is removed and fresh medium added every 3-4 days. The amount of infectious HIV recovered in the supernatant is measured for 3 weeks by p24 ELISA.
To test the efficacy of P4/D10-P2PDox in vivo, mice are given isogeneic HIV/MuLV-infected cells together with conjugates intraperitoneally.

[6] = MTD study of hLL1 conjugates in mice
Procedure: The MTD of multiple injections, at a schedule of every four days for a total of four injections (q4dx4) was then determined, using protein doses between 25 μg to 150 μg per injection. At these doses, a cumulative dose of between 100 and 600 μg was given to the animals.

[7] = system: Capan-1, BxPC-3 and AsPC-1 human pancreatic tumor lines and AGS, NCI-N87 and LS147T human gastric and colonic tumor lines; experiment: cytotoxicity of P2PDox-mAb conjugates to target cells; type: cell-based; settings: not shown
Description: The cytotoxicity of P2PDox-mAb conjugates to target cells was examined. hRS7-P2PDox and hMN-15-P2PDox were cytotoxic to MDA-MB-468, AG S, NCI-N87 and Capan-1 solid tumor cell lines (not shown). hMN-14-P2PDox was cytotoxic to Capan-1, BxPC-3 and AsPC-1 human pancreatic tumor lines and AGS, NCI-N87 and LS147T human gastric and colonic tumor lines (not shown). hLL2-P2PDOx was cytotoxic to Daudi, Raji, Ramos and JVM-3 hematopoietic tumor lines (not shown). IC50 values for the conjugates were in the nanomolar concentration range (not shown).

[8] = system: Trop-2-positive human pancreatic adenocarcinoma cell line (BxPC-3); experiment: ADCC with PBMCs, effector to target ratio 100:1; type: cell-based; settings: 33.3 nM
Procedure: The ADCC activity of various hRS7-ADC conjugates was determined in comparison to hRS7 IgG (FIG. 17). PBMCs were purified from blood purchased from the Blood Center of New Jersey. A Trop-2-positive human pancreatic adenocarcinoma cell line (BxPC-3) was used as the target cell line with an effector to target ratio of 100:1. ADCC mediated by hRS7 IgG was compared to hRS7-Pro-2-PDox, hRS7-CL2A-SN-38, and the reduced and capped hRS7-NEM. All were used at 33.3 nM.

[9] = system: metastatic ductal adenocarcinoma of the pancreas; experiment: treatment of a patient with metastatic pancreatic cancer; type: in vivo, human
Procedure: A person with metastatic ductal adenocarcinoma of the pancreas, who has relapsed after prior therapies with FOLFIRINOX followed by Nab-taxol (Abraxane®) plus gemcitabine is given PAM4-P2PDox ADC at a dose of 120 mg every other week for 4 courses, and after a 3-week delay, another course of 2 injections 2 weeks apart are given intravenously.

[10] = twice weekly×2 weeks with 45 μg

## P2PDox-hMN-24: P2PDox conjugate printed as hMN-24 (anti-CEACAM5)
CEACAM5
  effect of conjugation on antibody binding: lack of effect of conjugation on antibody binding to target antigen

## QIEYLAKQIVDNAIQQA [AKAP-IS]
[1]; read-out: binding constant for DDD
  Kd: 0.4 nM

## QIEYVAKQIVDYAIHQA [SuperAKAP-IS]
[1]
  selectivity for the RII isoform of PKA compared with the RI isoform: five order of magnitude higher selectivity

## hA20-P2PDox
[2]
  therapeutic response (FIG. 2): ineffective
[2]; [10]
  mice alive at 63 days after tumor injection: 2 of 10
[3]
  therapeutic response (FIG. 3): ineffective
  effect on tumors, one treatment cycle: little effect on tumor progression
[3]; same dosage schedules (45 μg q4dx4, 90 μg weekly×2, 180 μg single)
  effect on survival: no effect on survival
[4]; 150 mg i.v. every two weeks, 4 doses, mostly partial responses
  objective responses at the highest dose: 30%
[4]; all dosage levels
  B-cell and CLL ablation: Rapid B-cell and CLL ablation
[4]; human, in vivo
  human anti-veltuzumab antibody (HAHA) in serum samples: negative

## hLL1-P2PDox
[3]
  effect on tumors, one treatment cycle: little effect on tumor progression
[5]
  protection by control conjugates: None of the P2PDox-conjugated control antibodies (hLL1 or hRS7) provide any protection
[6]; 25 μg i.v. q4dx4
  signs of toxicity (weight loss): no signs of toxicity
[6]; not shown
  potency compared with 2-PDox conjugate of hLL1 in MTD study: much more potent
[6]; protein dose, every 4 days for 2 weeks (q4dx4), after analysis and repetition of the experiment
  MTD for fractionated dosing: 45 µg
[6]; q4dx4, from this experiment
  MTD for multiple injections: 25 µg
[6]; single injection (not shown)
  dose tolerated when administered as a single injection: 100 µg

## hMN-14-P2PDox
[3]
  effect on tumors, one treatment cycle: little effect on tumor progression
[7]
  cytotoxicity: cytotoxic

## hRS7 IgG: unconjugated humanized anti-TROP-2 antibody
[8]
  specific lysis (ADCC): 8.5%

## hRS7-SN-38 [reference compound]
[2]
  therapeutic response (FIG. 2): better therapeutic responses
[3]
  therapeutic response (FIG. 3): better therapeutic responses

B1: hPAM4-P2PDox (conjugate, chains of the INN, looked up)
VH: QVQLQQSGAEVKKPGASVKVSCEASGYTFPSYVLHWVKQAPGQGLEWIGYINPYNDGTQYNEKFKGKATLTRDTSINTAYMELSRLRSDDTAVYYCARGFGGSYGFAYWGQGTLVTVSS
VL: DIQLTQSPSSLSASVGDRVTMTCSASSSVSSSYLYWYQQKPGKAPKLWIYSTSNLASGVPARFSGSGSGTDFTLTISSLQPEDSASYFCHQWNRYPYTFGGGTRLEIK
modifications: P2PDox (pro-2-pyrrolinodoxorubicin) payload
[2]; not shown
  inhibition of tumor growth compared with the SN-38 conjugate of the same antibody: more effective at inhibiting growth
[2]; [10]
  mice alive at 63 days after tumor injection: 10 of 10
[9]; 120 mg every other week, CT at 8 weeks
  shrinkage of the sum of the 3 target lesions in the liver: 18%
[9]; baseline value of 12,400
  reduction of CA19-9 blood titer: 55%
[9]; recovers before the second course
  hematological toxicity after the first course: Grade 3 neutropenia

B2: hPAM4-SN-38: hPAM4 antibody conjugated to SN-38 (conjugate, chains of the INN, looked up)
VH: QVQLQQSGAEVKKPGASVKVSCEASGYTFPSYVLHWVKQAPGQGLEWIGYINPYNDGTQYNEKFKGKATLTRDTSINTAYMELSRLRSDDTAVYYCARGFGGSYGFAYWGQGTLVTVSS
VL: DIQLTQSPSSLSASVGDRVTMTCSASSSVSSSYLYWYQQKPGKAPKLWIYSTSNLASGVPARFSGSGSGTDFTLTISSLQPEDSASYFCHQWNRYPYTFGGGTRLEIK
modifications: SN-38 conjugate
[2]; twice weekly×4 weeks with 250 μg
  mice alive at 63 days after tumor injection: 0 of 10

— patent US9486536B2 (Immunomedics, Inc., priority 2013, dated 2016)
